Measurements reported in patent US7981893B2, “Heteroaryl compounds, compositions thereof, and methods of treatment therewith” (Signal Pharmaceuticals, LLC, priority 2006, dated 2011).

SMILES | melting point [°C]
O=c1[nH]c2ncc(-c3ccnc(O)c3)nc2n1CC1CCCCC1 [Compound 154, 1-(Cyclohexylmethyl)-6-(2-hydroxypyridin-4-yl)-1H-imidazo[4,5-b]pyrazin-2(3H)-one] | 311 to 313
CN1CCC(Cn2c(=O)[nH]c3ncc(-c4ccc(O)cc4)nc32)CC1 [Compound 109, 6-(4-Hydroxyphenyl)-1-((1-methylpiperidin-4-yl)methyl)-1H-imidazo[4,5-b]pyrazin-2(3H)-one] | 292 to 294
O=C1Cc2cc(-c3cnc4[nH]c(=O)n(CC5CCCCC5)c4n3)ccc2N1 [Compound 129, 1-(Cyclohexylmethyl)-6-(2-oxoindolin-5-yl)-1H-imidazo[4,5-b]pyrazin-2(3H)-one] | 313 to 316
O=c1[nH]c2ncc(-c3ccc4cc[nH]c4c3)nc2n1CC1CCCCC1 [Compound 106, 1-(Cyclohexylmethyl)-6-(1H-indol-6-yl)-1H-imidazo[4,5-b]pyrazin-2(3H)-one] | 359 to 363
O=c1[nH]c2ncc(-c3ccn[nH]3)nc2n1CC1CCCCC1 [Compound 125, 1-(Cyclohexylmethyl)-6-(1H-pyrazol-5-yl)-1H-imidazo[4,5-b]pyrazin-2(3H)-one] | 264 to 266
O=c1[nH]c2ncc(-c3cnc4[nH]cnc4c3)nc2n1CC1CCOCC1 [Compound 190, 6-(3H-imidazo[4,5-b]pyridin-6-yl)-1-((tetrahydro-2H-pyran-4-yl)methyl)-1H-imidazo[4,5-b]pyrazin-2(3H)-one] | 367 to 370
O=c1[nH]c2ncc(-c3ccc(-c4cn[nH]c4)cc3)nc2n1CC1CCCCC1 [Compound 161, 6-(4-(1H-Pyrazol-4-yl)phenyl)-1-(cyclohexylmethyl)-1H-imidazo[4,5-b]pyrazin-2(3H)-one] | 305 to 307
Cc1nc(-c2ccc(-c3cnc4[nH]c(=O)n(CCC5CCOCC5)c4n3)cc2)n[nH]1 [Compound 215, 6-(4-(5-methyl-1H-1,2,4-triazol-3-yl)phenyl)-1-(2-(tetrahydro-2H-pyran-4-yl)ethyl)-1H-imidazo[4,5-b]pyrazin-2(3H)-one] | 290 to 292
Cc1cc(C(=O)O)ccc1-c1cnc2[nH]c(=O)n(CC3CCCCC3)c2n1 [Compound 141, 4-(3-(Cyclohexylmethyl)-2-oxo-2,3-dihydro-1H-imidazo[4,5-b]pyrazin-5-yl)-3-methyl benzoic acid] | 244 to 247
CC(C)(O)c1nc(-c2ccc(-c3cnc4[nH]c(=O)n(CC5CCOCC5)c4n3)cc2)n[nH]1 [Compound 185, 6-(4-(5-(2-Hydroxypropan-2-yl)-1H-1,2,4-triazol-3-yl)phenyl)-1-((tetrahydro-2H-pyran-4-yl)methyl)-1H-imidazo[4,5-b]pyrazin-2(3H)-one] | 249 to 253
O=c1[nH]c2ncc(-c3ccc(O)cc3)nc2n1CCC1CCOCC1 [Compound 120, 6-(4-Hydroxyphenyl)-1-(2-(tetrahydro-2H-pyran-4-yl)ethyl)-1H-imidazo[4,5-b]pyrazin-2(3H)-one] | 276 to 277
O=c1[nH]c2ncc(-c3ccc(-c4nnc[nH]4)cc3)nc2n1CCN1CCOCC1 [Compound 193, 6-(4-(4H-1,2,4-Triazol-3-yl)phenyl)-1-(2-morpholinoethyl)-1H-imidazo[4,5-b]pyrazin-2(3H)-one] | 295 to 297
Cc1cc(O)ccc1-c1cnc2[nH]c(=O)n(CC3CCCCC3)c2n1 [Compound 115, 1-(Cyclohexylmethyl)-6-(4-hydroxy-2-methylphenyl)-1H-imidazo[4,5-b]pyrazin-2(3H)-one] | 212 to 214
O=c1[nH]c2ncc(-c3ccc(-c4n[nH]c(CN5CCOCC5)n4)cc3)nc2n1CC1CCOCC1 [Compound 175, 6-(4-(5-(Morpholinomethyl)-1H-1,2,4-triazol-3-yl)phenyl)-1-((tetrahydro-2H-pyran-4-yl)methyl)-1H-imidazo[4,5-b]pyrazin-2(3H)-one] | 281 to 283
O=c1[nH]c2ncc(-c3ccc4[nH]ncc4c3)nc2n1CC1CCCCC1 [Compound 130, 1-(Cyclohexylmethyl)-6-(1H-indazol-5-yl)-1H-imidazo[4,5-b]pyrazin-2(3H)-one] | 311 to 313
O=c1[nH]c2ncc(-c3ccc(O)nc3)nc2n1CC1CCCCC1 [Compound 135, 1-(Cyclohexylmethyl)-6-(6-hydroxypyridin-3-yl)-1H-imidazo[4,5-b]pyrazin-2(3H)-one] | > 400

SMILES | melting point [°C]
NC(=O)c1ccc(-c2cnc3[nH]c(=O)n(CC4CCCCC4)c3n2)cc1 [Compound 96, 4-(3-(Cyclohexylmethyl)-2-oxo-2,3-dihydro-1H-imidazo[4,5-b]pyrazin-5-yl)benzamide] | 293 to 295
O=c1[nH]c2ncc(-c3cccc(-c4nc[nH]n4)c3)nc2n1CC1CCCCC1 [Compound 166, 6-(3-(1H-1,2,4-Triazol-3-yl)phenyl)-1-(cyclohexylmethyl)-1H-imidazo[4,5-b]pyrazin-2(3H)-one] | 305 to 307
O=c1[nH]c2ncc(-c3ccc(O)cc3)nc2n1CC1CCCO1 (centres unmarked) [Compound 165, 6-(4-Hydroxyphenyl)-1-((tetrahydrofuran-2-yl)methyl)-1H-imidazo[4,5-b]pyrazin-2(3H)-one] | 256 to 258
O=c1[nH]c2ncc(-c3ccc(CO)cc3)nc2n1CC1CCCCC1 [Compound 100, 1-(Cyclohexylmethyl)-6-(4-(hydroxymethyl)phenyl)-1H-imidazo[4,5-b]pyrazin-2(3H)-one] | 275 to 277
O=c1[nH]c2ncc(-c3ccc(-c4n[nH]c(CO)n4)cc3)nc2n1CC1CCOCC1 [Compound 196, 6-(4-(5-(Hydroxymethyl)-1H-1,2,4-triazol-3-yl)phenyl)-1-((tetrahydro-2H-pyran-4-yl)methyl)-1H-imidazo[4,5-b]pyrazin-2(3H)-one] | 258 to 260
Cc1n[nH]cc1-c1cnc2[nH]c(=O)n(CC3CCOCC3)c2n1 [Compound 182, 6-(3-Methyl-1H-pyrazol-4-yl)-1-((tetrahydro-2H-pyran-4-yl)methyl)-1H-imidazo[4,5-b]pyrazin-2(3H)-one] | 222 to 224
O=c1[nH]c2ncc(-c3ccc(F)nc3)nc2n1CC1CCOCC1 [Compound 231, 6-(6-Fluoropyridin-3-yl)-1-((tetrahydro-2H-pyran-4-yl)methyl)-1H-imidazo[4,5-b]pyrazin-2(3H)-one] | 220 to 222
CC(C)c1nc(-c2ccc(-c3cnc4[nH]c(=O)n(CC5CCOCC5)c4n3)cc2)n[nH]1 [Compound 186, 6-(4-(5-Isopropyl-1H-1,2,4-triazol-3-yl)phenyl)-1-((tetrahydro-2H-pyran-4-yl)methyl)-1H-imidazo[4,5-b]pyrazin-2(3H)-one] | 305 to 308
COCCn1c(=O)[nH]c2ncc(-c3ccc(O)cc3)nc21 [Compound 117, 6-(4-Hydroxyphenyl)-1-(2-methoxyethyl)-1H-imidazo[4,5-b]pyrazin-2(3H)-one] | 236 to 237
O=c1[nH]c2ncc(-c3ccc(-n4ccnn4)cc3)nc2n1CC1CCCCC1 [Compound 157, 6-(4-(1H-1,2,3-Triazol-1-yl)phenyl)-1-(cyclohexylmethyl)-1H-imidazo[4,5-b]pyrazin-2(3H)-one] | 276 to 278
O=c1[nH]c2ncc(-c3ccc(-c4nc5ccccc5[nH]4)cc3)nc2n1CC1CCOCC1 [Compound 194, 6-(4-(1H-Benzo[d]imidazol-2-yl)phenyl)-1-((tetrahydro-2H-pyran-4-yl)methyl)-1H-imidazo[4,5-b]pyrazin-2(3H)-one] | > 300
O=C1CCCN1CCn1c(=O)[nH]c2ncc(-c3ccc(-c4nc[nH]n4)cc3)nc21 [Compound 203, 6-(4-(1H-1,2,4-Triazol-3-yl)phenyl)-1-(2-(2-oxopyrrolidin-1-yl)ethyl)-1H-imidazo[4,5-b]pyrazin-2(3H)-one] | 300 to 301
CC(C)(O)c1ccc(-c2cnc3[nH]c(=O)n(CC4CCOCC4)c3n2)cc1 [Compound 145, 6-(4-(2-Hydroxypropan-2-yl)phenyl)-1-((tetrahydro-2H-pyran-4-yl)methyl)-1H-imidazo[4,5-b]pyrazin-2(3H)-one] | 212 to 214
Nc1ncc(-c2cnc3[nH]c(=O)n(CC4CCCCC4)c3n2)cn1 [Compound 236, 6-(2-aminopyrimidin-5-yl)-1-(cyclohexylmethyl)-1H-imidazo[4,5-b]pyrazin-2(3H)-one] | > 250
O=c1[nH]c2ncc(-c3ccc(-c4ncc[nH]4)cc3)nc2n1CC1CCCCC1 [Compound 156, 6-(4-(1H-Imidazol-2-yl)phenyl)-1-(cyclohexylmethyl)-1H-imidazo[4,5-b]pyrazin-2(3H)-one] | 349 to 351
Cc1nc(-c2ccc(-c3cnc4[nH]c(=O)n(CC5CCCCC5)c4n3)cc2)n[nH]1 [Compound 159, 1-(Cyclohexylmethyl)-6-(4-(5-methyl-1H-1,2,4-triazol-3-yl)phenyl)-1H-imidazo[4,5-b]pyrazin-2(3H)-one] | 315 to 318
